Counter-ions that a name gives are not always drawn. Like-named read-outs stand apart in the source and are kept apart here.
Tests used:
AChE = molecular target: T1, AChE (Rattus norvegicus, UniProt P37136); assay: biochemical; settings: for Selectivity for AChE: IC50(BChE)/IC50(AChE)
T1 construct: Frontal cortex (brain dissected on ice) was homogenized in sodium phosphate buffer; from tissue; host or cells: rat frontal cortex homogenate
T1 sequence (P37136 32-614): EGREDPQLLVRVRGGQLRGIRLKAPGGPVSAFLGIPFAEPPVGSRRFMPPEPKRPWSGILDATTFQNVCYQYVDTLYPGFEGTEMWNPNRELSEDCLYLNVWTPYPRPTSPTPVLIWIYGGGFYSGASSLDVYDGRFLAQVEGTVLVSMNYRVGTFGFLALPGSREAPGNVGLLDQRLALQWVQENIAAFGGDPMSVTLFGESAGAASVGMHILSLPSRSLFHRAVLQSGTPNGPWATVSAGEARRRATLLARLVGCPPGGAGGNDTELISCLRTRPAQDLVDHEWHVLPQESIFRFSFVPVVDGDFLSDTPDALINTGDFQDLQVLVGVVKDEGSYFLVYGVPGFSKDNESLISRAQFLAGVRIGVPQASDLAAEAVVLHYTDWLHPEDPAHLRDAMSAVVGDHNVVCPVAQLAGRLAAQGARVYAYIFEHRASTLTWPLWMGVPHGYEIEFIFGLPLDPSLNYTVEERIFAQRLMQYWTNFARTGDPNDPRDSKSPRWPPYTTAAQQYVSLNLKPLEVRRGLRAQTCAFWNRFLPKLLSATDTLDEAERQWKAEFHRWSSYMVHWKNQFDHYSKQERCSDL
Protocol: (§1) Rat serum was obtained by centrifugation of blood (3500×g, 10 min.). The cholinesterase assays were performed using the cloroimetric method of Ellman, with minor modification. […] A mixture of 4 mL containing acetylthiocholine iodide (0.3 mM) or butrylthiocholine iodide (0.4 mM), I mL sodium phosphate buffer ([…], pH 7.4), a solution of the compound being tested (0.1 mL), and homogenate or serum (0.1 mL) was incubated at 37° C. for 8 minutes. The reaction was terminated by the addition of sodium dodecyl sulfate (3% w/v, 1 mL), after which the 5,5′-dithiobis-(2-nitrobenzoic acid) indicator (0.2% w/v, 1 mL) was added. Enzyme activity was determined by measuring the absorbance at 420 nm after 10 minutes, relative to the drug-free control.

BChE = molecular target: T2, BChE (Rattus norvegicus, UniProt Q9JKC1); assay: biochemical; settings: for IC50: rat serum
T2 construct: Rat serum was obtained by centrifugation of blood; from tissue; host or cells: rat serum
T2 sequence (Q9JKC1 24-597): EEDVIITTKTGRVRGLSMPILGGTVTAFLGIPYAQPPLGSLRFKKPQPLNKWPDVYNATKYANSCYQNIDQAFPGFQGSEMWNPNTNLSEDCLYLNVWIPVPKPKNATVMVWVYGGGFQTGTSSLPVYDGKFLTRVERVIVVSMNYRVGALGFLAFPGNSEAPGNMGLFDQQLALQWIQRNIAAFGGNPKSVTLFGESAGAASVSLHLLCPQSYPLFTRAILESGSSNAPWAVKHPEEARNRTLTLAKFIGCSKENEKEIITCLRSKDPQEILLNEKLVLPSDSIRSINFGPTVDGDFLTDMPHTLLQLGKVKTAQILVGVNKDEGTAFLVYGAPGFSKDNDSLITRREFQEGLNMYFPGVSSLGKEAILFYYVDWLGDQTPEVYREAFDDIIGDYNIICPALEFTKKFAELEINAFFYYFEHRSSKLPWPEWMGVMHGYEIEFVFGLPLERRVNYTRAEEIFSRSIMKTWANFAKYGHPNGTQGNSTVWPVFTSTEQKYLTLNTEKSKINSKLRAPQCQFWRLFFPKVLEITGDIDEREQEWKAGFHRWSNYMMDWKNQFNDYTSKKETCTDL
Protocol: as §1, with “AChE and BChE enzyme preparations were prepared from cortex and serum respectively of decapitated rats. Frontal cortex (brain dissected on ice) was homogenized in sodium phosphate buffer (39 vol. 75 mM, pH 7.4). Rat” for “Rat”

[1] = at 0.5 mM, the highest drug concentration tested
[2] = Table II, in the presence of BW284c51 as a specific AChE inhibitor, drugs assayed as salts
[3] = Table II, rat cortex homogenate, in the presence of ethopropazine as a specific BChE inhibitor, drugs assayed as hydrochloride or fumaric acid salts, read-out: AchE IC50
[4] = Table III, in the presence of BW284c51, drugs 13 assayed as hydrochloride salts
[5] = Table III, rat cornea homogenate, in the presence of ethopropazine, drugs 13 assayed as hydrochloride salts, read-out: AChE IC50

Row | SMILES | Selectivity for AChE (AChE; Table II) | IC50 (BChE; [2]) [µM] | IC50 (AChE; [3]) [µM] | also measured
1 | CCCCNC1CCCc2[nH]c(=O)ccc21 (racemic) [(±)-16, 5-n-Butylamino-5,6,7,8-tetrahydroquinolinone, bis-Hydrochloride, reference compound] | ·1 | ~500 |  | IC50 (AChE): ~500 µM; inhibition at 500 µM (AChE; [1]): ~50%; inhibition at 500 µM (BChE; [1]): ~50%
2 | O=c1ccc2c([nH]1)CCCC2NCCCCNC1CCCc2[nH]c(=O)ccc21 (racemic) [rac-lmeso-13a] | 2.7 | 115 | 42.3 | 
3 | O=c1ccc2c([nH]1)CCCC2NCCCCCNC1CCCc2[nH]c(=O)ccc21 (racemic) [rac-lmeso-13b] | 9.1 |  | 10.5 | 
4 | O=c1ccc2c([nH]1)CCCC2NCCCCCCNC1CCCc2[nH]c(=O)ccc21 (racemic) [rac-lmeso-13c] | 26.3 | 98.8 | 3.76 | 
5 | O=c1ccc2c([nH]1)CCCC2NCCCCCCCNC1CCCc2[nH]c(=O)ccc21 (racemic) [rac-lmeso-13d, rac-/meso-N′,N′-Di-5′-(5′,6′,7′,8′-Tetrahydroquinolin-2-onyl)-1,7-diaminoheptane, bis-Hydrochloride Salt] | 28.0 | 34.6 | 1.24 | 
6 | O=c1ccc2c([nH]1)CCCC2NCCCCCCCCNC1CCCc2[nH]c(=O)ccc21 (racemic) [rac-lmeso-13e] | 8.7 | 10.2 | 1.17 | 
7 | O=c1ccc2c([nH]1)CCCC2NCCCCCCCCCNC1CCCc2[nH]c(=O)ccc21 (racemic) [rac-lmeso-13f] | 30.3 |  | 0.356 ± 0.007 | 
8 | O=c1ccc2c([nH]1)CCCC2NCCCCCCCCCCNC1CCCc2[nH]c(=O)ccc21 (racemic) [rac-lmeso-13g] |  | 5.45 |  | 
9 | O=c1ccc2c([nH]1)CCCC2NCCCCCCCCCCCCNC1CCCc2[nH]c(=O)ccc21 (racemic) [rac-lmeso-13i] |  | 24.4 |  | 
10 | CC1(C)Cc2[nH]c(=O)ccc2C(NCCCCCCCNC2CC(C)(C)Cc3[nH]c(=O)ccc32)C1 (racemic) [rac-lmeso-14d, rac-/meso-N,N′-Di-5′-(7′,7′-Dimethyl-5′,6′,7′,8′-tetrahydroquinolin-2-onyl)-1,7-diaminoheptane, bis-Fumaric Acid Salt] | 10 | 190 | 18.3 | 
11 | CC1(C)Cc2[nH]c(=O)ccc2C(NCCCCCCCCCNC2CC(C)(C)Cc3[nH]c(=O)ccc32)C1 (racemic) [rac-lmeso-14f] | 8.8 | 104 | 11.8 | 
12 | CC1(C)Cc2[nH]c(=O)ccc2C(NCCCCCCCCCCNC2CC(C)(C)Cc3[nH]c(=O)ccc32)C1 (racemic) [rac-lmeso-14g] | 17 |  | 6.11 | 
13 | CC1(C)Cc2[nH]c(=O)ccc2C(NCCCCCCCCCCCCNC2CC(C)(C)Cc3[nH]c(=O)ccc32)C1 (racemic) [rac-lmeso-14i] | 17 |  | 3.62 | 
14 | Cn1c2c(ccc1=O)C(NCCCCCCCCCCNC1CCCc3c1ccc(=O)n3C)CCC2 (racemic) [rac-lmeso-15g, rac/meso-N,N′-di-5′-(5′,6′,7′,8′-Tetrahydro-1′-methyl-quinolinolyl)-1,10-diaminodecane, bis-Fumaric Acid] | 180 |  | 0.438 ± 0.029 | 
15 | COc1ccc2c(n1)CCCC2NCCCCCCCCCCNC1CCCc2nc(OC)ccc21 (racemic) [rac-lmeso-17g, rac-/meso-N,N′-di-5′-(5′,6′,7′,8′-Tetrahydro-2′-methoxy-quinolinyl)-1,10-diaminodecane, bis-Fumaric Acid] | 7.6 | 34.6 | 4.53 | 
16 | COc1ccc2c(n1)CCCC2NCCCCCCCCCCCCNC1CCCc2nc(OC)ccc21 (racemic) [rac-lmeso-17i] | 15.8 | 78.9 | 5 | fold increase in AChE IC50 relative to rac-/meso-13i (AChE): 31 fold
17 | CC1(NCCCCCCCCCCNC2(C)CCCc3[nH]c(=O)ccc32)CCCc2[nH]c(=O)ccc21 (racemic) [rac-lmeso-19g, rac-/meso-N,N′-di-5′-(5′,6′,7′,8′-Tetrahydro-5′-methylquinolinonyl)-1,10-diaminodecane, Fumaric Acid Salt] | 6.6 |  | 1.86 | fold less potent than 13 g (AChE; AChE potency): 8 fold
18 | O=c1ccc2c([nH]1)CCC[C@H]2NCCCCCCCCCCCCN[C@@H]1CCCc2[nH]c(=O)ccc21 [(R,R)-(+)-13i] |  |  |  | IC50 (BChE; [4]): 297 µM
19 | O=c1ccc2c([nH]1)CCC[C@@H]2NCCCCCCCCCCN[C@H]1CCCc2[nH]c(=O)ccc21 [(S,S)-(−)-13g] |  |  |  | IC50 (BChE; [4]): 1.82 µM
20 | O=c1ccc2c([nH]1)CCC[C@@H]2NCCCCCCCCCCCN[C@H]1CCCc2[nH]c(=O)ccc21 [(S,S)-(−)-13h] |  |  |  | Selectivity for AChE (AChE; Table III): 13.8; IC50 (AChE; [5]): 0.084 ± 0.005 µM; IC50 (BChE; [4]): 1.16 µM
21 | O=c1ccc2c([nH]1)CCC[C@@H]2NCCCCCCCCCCCCN[C@H]1CCCc2[nH]c(=O)ccc21 [(S,S)-(−)-13i, (S,S)-(−)-N,N′-di-5′-(5′,6′,7′,8′-Tetrahydroquinolin-2-onyl)-1,12-diaminododecane, bis-Hydrochloride Salt] |  |  |  | IC50 (BChE; [4]): 9.6 µM
22 | O=c1ccc2c([nH]1)CCC[C@@H]2NCCCCCCCCCCCCCN[C@H]1CCCc2[nH]c(=O)ccc21 [(S,S)-(−)-13j] |  |  |  | Selectivity for AChE (AChE; Table III): 321; IC50 (AChE; [5]): 0.052 ± 0.009 µM; IC50 (BChE; [4]): 16.7 µM
23 | O=c1ccc2c([nH]1)CCC[C@@H]2NCCCCCCCCCCCCCCN[C@H]1CCCc2[nH]c(=O)ccc21 [(S,S)-(−)-13k] |  |  |  | Selectivity for AChE (AChE; Table III): 248; IC50 (AChE; [5]): 0.24 ± 0.05 µM; IC50 (BChE; [4]): 59.5 µM

— US6472408B1, “Dimeric compounds” (priority 2000, dated 2002)
